Experimental data taken from ChEMBL document CHEMBL4421728, “Bach1 Inhibitors in Combination with Nrf2 Activators and Pharmaceutical Compositions Thereof” (2017).
Each block holds one compound with its values, some of them ahead of it.

Columns and labels:
[1] = target: T1, Transcription regulator protein BACH1 (Homo sapiens) (UniProt O14867); experiment: Inhibition of Bach1 in normal human lung fibroblasts assessed as induction of HMOX protein expression by measuring HMOX positive cells level at 0.019 uM in presence of 1 uM Nrf2 activator DMF incubated for 16 to 18 hrs by immunostaining relative to control DMSO; design: scale not given: the % may be the effect or the level left
T1 sequence (whole entry): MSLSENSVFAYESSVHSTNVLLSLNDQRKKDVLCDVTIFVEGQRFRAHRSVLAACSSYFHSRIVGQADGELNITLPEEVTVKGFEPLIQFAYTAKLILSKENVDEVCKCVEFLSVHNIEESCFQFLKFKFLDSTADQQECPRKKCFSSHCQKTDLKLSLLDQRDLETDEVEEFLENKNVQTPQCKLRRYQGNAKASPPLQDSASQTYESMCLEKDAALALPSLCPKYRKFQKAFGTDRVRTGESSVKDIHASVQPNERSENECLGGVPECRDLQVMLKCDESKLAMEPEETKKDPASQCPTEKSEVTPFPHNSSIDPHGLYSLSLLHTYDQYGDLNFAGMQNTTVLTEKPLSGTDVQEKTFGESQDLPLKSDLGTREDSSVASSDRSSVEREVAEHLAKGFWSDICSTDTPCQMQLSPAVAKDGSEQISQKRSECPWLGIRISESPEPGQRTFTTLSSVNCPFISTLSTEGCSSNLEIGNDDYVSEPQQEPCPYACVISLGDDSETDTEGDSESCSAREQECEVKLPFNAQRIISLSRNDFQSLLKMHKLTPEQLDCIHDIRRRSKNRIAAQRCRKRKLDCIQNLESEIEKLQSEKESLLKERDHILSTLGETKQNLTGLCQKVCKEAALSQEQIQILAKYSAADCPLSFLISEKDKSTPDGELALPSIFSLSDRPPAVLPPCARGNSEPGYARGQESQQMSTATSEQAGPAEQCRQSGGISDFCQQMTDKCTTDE

[2] = target: T1, Transcription regulator protein BACH1 (Homo sapiens); experiment: Inhibition of Bach1 in normal human lung fibroblasts assessed as induction of HMOX protein expression at 0.039 uM in presence of 0.03 uM Nrf2 activator DMF incubated for 16 to 18 hrs by immunostaining relative to control
[3] = target: T1, Transcription regulator protein BACH1 (Homo sapiens); experiment: Inhibition of Bach1 in normal human lung fibroblasts assessed as induction of HMOX protein expression at 0.019 uM in presence of 10 uM Nrf2 activator DMF incubated for 16 to 18 hrs by immunostaining relative to control
[4] = target: T1, Transcription regulator protein BACH1 (Homo sapiens); experiment: Inhibition of Bach1 in normal human lung fibroblasts assessed as induction of HMOX protein expression at 0.019 uM in presence of 3 uM Nrf2 activator DMF incubated for 16 to 18 hrs by immunostaining relative to control
[5] = target: T1, Transcription regulator protein BACH1 (Homo sapiens); experiment: Inhibition of Bach1 in normal human lung fibroblasts assessed as induction of HMOX protein expression at 0.156 uM in presence of 30 uM Nrf2 activator DMF incubated for 16 to 18 hrs by immunostaining relative to control
[6] = target: T1, Transcription regulator protein BACH1 (Homo sapiens); experiment: Inhibition of Bach1 in normal human lung fibroblasts assessed as induction of HMOX protein expression at 5 uM incubated for 16 to 18 hrs by immunostaining relative to control
[7] = target: T1, Transcription regulator protein BACH1 (Homo sapiens); experiment: Inhibition of Bach1 in normal human lung fibroblasts assessed as induction of HMOX protein expression at 0.156 uM incubated for 16 to 18 hrs in presence of 0.0097 uM Nrf2 activator Bardoxolone methyl by immunostaining relative to control
[8] = target: T1, Transcription regulator protein BACH1 (Homo sapiens); experiment: Inhibition of Bach1 in normal human lung fibroblasts assessed as induction of HMOX protein expression at 2.5 uM incubated for 16 to 18 hrs in presence of 0.078 uM Nrf2 activator Bardoxolone methyl by immunostaining relative to control
[9] = target: T1, Transcription regulator protein BACH1 (Homo sapiens); experiment: Inhibition of Bach1 in normal human lung fibroblasts assessed as induction of HMOX protein expression at 0.156 uM incubated for 16 to 18 hrs in presence of 0.039 uM Nrf2 activator Bardoxolone methyl by immunostaining relative to control
[10] = target: T1, Transcription regulator protein BACH1 (Homo sapiens); experiment: Inhibition of Bach1 in normal human lung fibroblasts assessed as induction of HMOX protein expression at 0.039 uM incubated for 16 to 18 hrs in presence of 0.039 uM Nrf2 activator Bardoxolone methyl by immunostaining relative to control
[11] = target: T1, Transcription regulator protein BACH1 (Homo sapiens); experiment: Inhibition of Bach1 in normal human lung fibroblasts assessed as induction of HMOX protein expression at 0.039 uM incubated for 16 to 18 hrs in presence of 0.0097 uM Nrf2 activator Bardoxolone methyl by immunostaining relative to control
[12] = target: T1, Transcription regulator protein BACH1 (Homo sapiens); experiment: Inhibition of Bach1 in normal human lung fibroblasts assessed as induction of HMOX protein expression at 0.625 uM incubated for 16 to 18 hrs in presence of 0.078 uM Nrf2 activator Bardoxolone methyl by immunostaining relative to control
[13] = target: T1, Transcription regulator protein BACH1 (Homo sapiens); experiment: Inhibition of Bach1 in normal human lung fibroblasts assessed as induction of HMOX protein expression at 2.5 uM incubated for 16 to 18 hrs in presence of 0.0024 uM Nrf2 activator Bardoxolone methyl by immunostaining relative to control
[14] = target: T1, Transcription regulator protein BACH1 (Homo sapiens); experiment: Inhibition of Bach1 in normal human lung fibroblasts assessed as induction of HMOX protein expression at 0.156 uM incubated for 16 to 18 hrs in presence of 0.0048 uM Nrf2 activator Bardoxolone methyl by immunostaining relative to control
[15] = target: T1, Transcription regulator protein BACH1 (Homo sapiens); experiment: Inhibition of Bach1 in normal human lung fibroblasts assessed as induction of HMOX protein expression at 1.25 uM incubated for 16 to 18 hrs in presence of 0.078 uM Nrf2 activator Bardoxolone methyl by immunostaining relative to control
[16] = target: T1, Transcription regulator protein BACH1 (Homo sapiens); experiment: Inhibition of Bach1 in normal human lung fibroblasts assessed as induction of HMOX protein expression at 1.25 uM incubated for 16 to 18 hrs by immunostaining relative to control
[17] = target: T1, Transcription regulator protein BACH1 (Homo sapiens); experiment: Inhibition of Bach1 in normal human lung fibroblasts assessed as induction of HMOX protein expression at 0.156 uM incubated for 16 to 18 hrs in presence of 0.019 uM Nrf2 activator Bardoxolone methyl by immunostaining relative to control
[18] = target: T1, Transcription regulator protein BACH1 (Homo sapiens); experiment: Inhibition of Bach1 in normal human lung fibroblasts assessed as induction of HMOX protein expression at 0.312 uM incubated for 16 to 18 hrs in presence of 0.019 uM Nrf2 activator Bardoxolone methyl by immunostaining relative to control
[19] = target: T1, Transcription regulator protein BACH1 (Homo sapiens); experiment: Inhibition of Bach1 in normal human lung fibroblasts assessed as induction of HMOX protein expression at 0.019 uM incubated for 16 to 18 hrs in presence of 0.0024 uM Nrf2 activator Bardoxolone methyl by immunostaining relative to control
[20] = target: T1, Transcription regulator protein BACH1 (Homo sapiens); experiment: Inhibition of Bach1 in normal human lung fibroblasts assessed as induction of HMOX protein expression at 0.078 uM incubated for 16 to 18 hrs in presence of 0.156 uM Nrf2 activator Bardoxolone methyl by immunostaining relative to control
[21] = target: T1, Transcription regulator protein BACH1 (Homo sapiens); experiment: Inhibition of Bach1 in normal human lung fibroblasts assessed as induction of HMOX protein expression at 2.5 uM incubated for 16 to 18 hrs in presence of 0.0048 uM Nrf2 activator Bardoxolone methyl by immunostaining relative to control

Activity [1]: 26.4%
fold change (FC) [2]: 1.81
fold change (FC) [3]: 5.12
fold change (FC) [4]: 3.55
fold change (FC) [5]: 6.18
SMILES: Cn1c(Nc2nc3ccc(C(F)(F)F)cc3s2)nc2cc(C(=O)NCCOCCO)ccc21

fold change (FC) [6]: 17.7
fold change (FC) [7]: 12.1
fold change (FC) [8]: 14.3
fold change (FC) [9]: 17.6
fold change (FC) [10]: 14.7
fold change (FC) [11]: 5.31
fold change (FC) [12]: 18.6
fold change (FC) [13]: 18.8
fold change (FC) [14]: 8.04
fold change (FC) [15]: 15.2
fold change (FC) [16]: 16.2
fold change (FC) [17]: 15.9
fold change (FC) [18]: 17.7
fold change (FC) [19]: 3.24
fold change (FC) [20]: 17.9
fold change (FC) [21]: 19.5
SMILES: CNC(=O)c1ccc2c(c1)nc(Nc1nc3ccc(OC(F)(F)F)cc3s1)n2C

Activity [1]: 7.52%
fold change (FC) [2]: 1.07
fold change (FC) [3]: 4.94
fold change (FC) [4]: 2.98
fold change (FC) [5]: 4.99
SMILES: COCCNC(=O)c1cnc2c(c1)nc(Nc1nc3ccc(OC(F)(F)F)cc3s1)n2C

Activity [1]: 10.2%
fold change (FC) [2]: 1.28
fold change (FC) [3]: 5.75
fold change (FC) [4]: 2.86
fold change (FC) [5]: 5.49
SMILES: CN(C)C(=O)CNC(=O)c1ccc2c(c1)nc(Nc1nc3ccc(C(F)(F)F)cc3s1)n2C
